Data taken from publication PMC5711809, “Bayesian Analysis of MicroScale Thermophoresis Data to Quantify Affinity of Protein:Protein Interactions with Human Survivin” (Scientific Reports, 2017).
Peptide text beside a SMILES is read from it.

Assay: solubility in typical aqueous buffers
Format: physicochemical

solubility (in words): soluble
Compound: CC(C)C[C@H](NC(=O)[C@H](CO)NC(=O)[C@H](CC(N)=O)NC(=O)[C@@H](NC(=O)[C@H](CCCCN)NC(=O)[C@H](C)NC(=O)[C@@H](NC(=O)[C@H](CCCNC(=N)N)NC(=O)[C@H](CO)NC(=O)[C@H](CO)NC(=O)CN)C(C)C)[C@@H](C)O)C(=O)N[C@@H](CCCNC(=N)N)C(=O)N[C@@H](CCCNC(=N)N)C(=O)N[C@@H](CCCNC(=N)N)C(=O)N[C@@H](CCCCN)C(=O)O [Borealin^6–20, GSSRVAKTNSLRRRK] (H-GSSRVAKTNSLRRRK-OH)
